Results: patent US8937096B2, “Use of benzo-fused heterocyle sulfamide derivatives for the treatment of mania and bipolar disorder” (priority 2005, dated 2015)

Assays:
[1] = tested on: amygdala kindled seizures; experiment: Amygdala Kindling Assay (Kindling Prevention); type: in vivo, rat
[2] = tested on: stressed and non-stressed animals; experiment: Resident/Intruder Assay (Chronic Social Stress Assay); type: in vivo; design: Locomotor Mean ± SD / Rearing Mean ± SD / Sniffing Down Mean ± SD / Sniffing Up Mean ± SD: unit not given here
From the text: The behavioral resident/intruder assay is used to screen compounds for anti-depressant-like activity.

Sprague Dawley rats = experiment: Forced Swim Test (Acute); type: in vivo, rat
Description: The Forced Swim test (FST) is a commonly used procedure to screen compounds for possible antidepressant properties. This test is also known as the behavioral despair test. Rodents placed in […] tanks filled with water present a wide variety of escape or immobility behaviors. Antidepressant drugs from different classes markedly increase escape behaviors and/or decrease latency or duration of immobility.
Venlafaxine and desipramine were dissolved in water. All drugs and their vehicles were administered orally (p.o.) by gavage in a volume of 5 mL/kg.
Male Sprague Dawley rats (140 to 160 g) from Charles River Laboratories Wilmington, Mass. were used. The animals went through a five-day quarantine period before being subjected to the experimental procedure.
Animals were housed in groups of four in plastic cages at an ambient temperature of 21° C. to 23° C. with an automated 12 hour light/dark cycle and access to water and commercial rodent food ad libitum. Animals were not handled more than for the routine bedding change prior to pre-test swim session.
Each experiment consisted of seven treatment groups with n=4 animals per group. A total of 28 animals per experiment were used. Two consecutive experiments (1 and 2, 3 and 4, and 5 and 6) were exact replicas of each other. […] One treatment group of n=4 animals in each experiment was a vehicle treated group. […] In experiments 5 and 6 the effects of venlafaxine and maprotyline at 12 mg/kg, 30 mg/kg, and 60 mg/kg were tested.
The basic apparatus consisted of a cylinder (46 cm tall×˜20 cm diameter) filled with water to 30 cm deep, at a temperature of 25±1° C. The automated version of the FST was used to perform the experiments. Plumbing for automatic filling and emptying water connected the four cylinders. Cylinders were placed in the dividing chambers 25 cm wide to separate animals visually. Each 5-minute experimental session was videotaped and analyzed in real time by computer software (Clever Systems, Inc.) for four animals at a time. The immobility, swimming, climbing and escape times were recorded by the software. The four activities are defined as follow. Immobility: the animal floats motionlessly or makes only those movements necessary to keep its head above water; Climb: the animal vigorously moves vertically while scratching the wall around the cylinder; Swim: the animal moves horizontally around in the cylinder more than necessary to keep its head above water; and Escape: sum of all vigorous active movements.
The ability of a test compound to decrease the duration or frequency of immobility, or changes in swimming, climbing and escape times, was measured using the FST procedure described above. […] The analysis of the results in the studies described was focused on the immobility time during 5-minute test session.
There were two swim sessions in each experiment. First, a pre-test swim session for 15 minutes was performed. Following 48 hours later was a test session of 5-minute duration. Upon completion of a swim session, each animal was placed under a heat lamp in a cage with soft bedding for approximately 15 minutes to prevent hypothermia.
Animals were pre-treated with a vehicle or test compound after completing the pre-test swim session, then 24 hours later and then shortly prior to the 5-minute test session; i.e., three injections were given to each animal between the two swim sessions that occurred on 3 consecutive days.
Data were analyzed using GraphPad Prism software (GraphPad Software, Inc. San Diego, Calif.). For the comparison of the effect of different doses for various drugs on immobility in the FST one-way ANOVA was used followed by Dunnett's multiple comparison test. […] The ED50 and Emax values were statistically compared using two-tail t-test.

[3] = Median toxic dose (TD50) / toxic doses of Compound #8 and reference drugs; conditions: Sprague-Dawley, rat, in vivo, ip
[4] = tested on: hippocampal kindled seizures; experiment: Rat Hippocampal Kindling Test (Interruption of Kindled State); type: in vivo
Description: In the present rapid hippocampal kindling model adult male Sprague-Dawley rats (300-400 g) were surgically implanted with bipolar electrodes placed in the hippocampus. […] One week later, the rats received 2-3 supra-threshold stimulations delivered every 30 min before treatment with test compound, to ensure stability of the behavioral seizure stage and after-discharge duration. Fifteen minutes after the last stimulation, a single dose of vehicle or test compound was administered i.p. (intraperitoneally). After 15 min, each rat was then stimulated every 30 min for 3 to 4 h. After each stimulation, individual seizure scores and after-discharge durations were recorded. The group mean±SEM were calculated for each parameter. Eight rats per dose and a minimum of four doses were used to establish an ED50 value. Efficacy was measured as the ability of a compound to modify the seizure score (severity of spread) and after-discharge duration (ADD; excitability) of the generalized seizures.
Thus, according to the theories presented in current literature (Ghaemi, S. N., Boiman, E. E., and Goodwin, F. K., Soc. of Bio. Psychiatry, (1999), vol. 45, pp 137-144; Stoll, A. L., and Severus, W. E., Harvard Rev. Psychiatry, July/August (1996), Vol. 4, No. 2, pp 77-89) a decrease in seizure score and/or ADD may also be predictive of the ability of a test compound to treat the cycling associated with bipolar disorder.

[5] = non-stressed, 60 mg/kg p.o., week 1
[6] = non-stressed, 60 mg/kg p.o., week 5
[7] = non-stressed, 120 mg/kg p.o., week 1
[8] = non-stressed, 120 mg/kg p.o., week 5
[9] = stressed, 60 mg/kg p.o., week 1
[10] = stressed, 60 mg/kg p.o., week 5
[11] = stressed, 120 mg/kg p.o., week 1
[12] = stressed, 120 mg/kg p.o., week 5

NS(=O)(=O)NC[C@H]1COc2cc(Cl)ccc2O1 [Compound #8, (2S)-(−)-N-(6-Chloro-2,3-dihydro-benzo[1,4]dioxin-2-ylmethyl)-sulfamide]
acquisition of kindling ([1]; 75 mg/kg i.p.): prevented the acquisition of the full generalized kindled seizure | seizure score at the conclusion of the drug- and stimulus-free period ([1]; 75 mg/kg i.p. during kindling acquisition, Racine scale, vehicle 4.6±0.24): 1.4±0.40 | after-discharge (AD) duration vs vehicle ([1]; 75 mg/kg i.p., kindling acquisition phase): No statistical difference between treatment groups | activity in the resident/intruder assay ([2]; 60 and 120 mg/kg p.o.): active in the resident/intruder assay | Forced Swim Test: Immobility during 5 min: Week 5 Mean ± SD ([2]; non-stressed, 60 mg/kg p.o.): 164.3 ± 25.3 | Sucrose Intake Mean ± SD Week 3 ([2]; non-stressed, 60 mg/kg p.o.): 90.9 ± 3.5 | Sucrose Intake Mean ± SD Week 4 ([2]; non-stressed, 60 mg/kg p.o.): 92.3 ± 1.4 | Sucrose Intake Mean ± SD Week 5 ([2]; non-stressed, 60 mg/kg p.o.): 88.9 ± 7.4 | Locomotor Mean ± SD [2, 5]: 8288.6 ± 2117.5 | Rearing Mean ± SD [2, 5]: 49.6 ± 8.7 | Sniffing Down Mean ± SD [2, 5]: 20.9 ± 3.3 | Sniffing Up Mean ± SD [2, 5]: 44.1 ± 9.4 | Locomotor Mean ± SD [2, 6]: 7922.9 ± 1476 | Rearing Mean ± SD [2, 6]: 37.4 ± 11.5 | Sniffing Down Mean ± SD [2, 6]: 23.5 ± 6.4 | Sniffing Up Mean ± SD [2, 6]: 33.4 ± 11.2 | Forced Swim Test: Immobility during 5 min: Week 5 Mean ± SD ([2]; non-stressed, 120 mg/kg p.o.): 136.7 ± 34.9 | Sucrose Intake Mean ± SD Week 3 ([2]; non-stressed, 120 mg/kg p.o.): 83.6 ± 22.1 | Sucrose Intake Mean ± SD Week 4 ([2]; non-stressed, 120 mg/kg p.o.): 91.3 ± 4.6 | Sucrose Intake Mean ± SD Week 5 ([2]; non-stressed, 120 mg/kg p.o.): 89.3 ± 5.1 | Locomotor Mean ± SD [2, 7]: 8056.6 ± 867.2 | Rearing Mean ± SD [2, 7]: 42 ± 10.6 | Sniffing Down Mean ± SD [2, 7]: 22.8 ± 3.7 | Sniffing Up Mean ± SD [2, 7]: 37.6 ± 8.4 | Locomotor Mean ± SD [2, 8]: 8648.3 ± 1060.9 | Rearing Mean ± SD [2, 8]: 36.5 ± 6.3 | Sniffing Down Mean ± SD [2, 8]: 25.5 ± 4.1 | Sniffing Up Mean ± SD [2, 8]: 33.5 ± 5.9 | Forced Swim Test: Immobility during 5 min: Week 5 Mean ± SD ([2]; stressed, 60 mg/kg p.o.): 175.1 ± 29.5 | Sucrose Intake Mean ± SD Week 3 ([2]; stressed, 60 mg/kg p.o.): 92.1 ± 3.2 | Sucrose Intake Mean ± SD Week 4 ([2]; stressed, 60 mg/kg p.o.): 89.5 ± 6.9 | Sucrose Intake Mean ± SD Week 5 ([2]; stressed, 60 mg/kg p.o.): 92.4 ± 4.5 | Locomotor Mean ± SD [2, 9]: 5858.5 ± 708.2 | Rearing Mean ± SD [2, 9]: 26.5 ± 6.1 | Sniffing Down Mean ± SD [2, 9]: 13 ± 3.3 | Sniffing Up Mean ± SD [2, 9]: 25 ± 7.3 | Locomotor Mean ± SD [2, 10]: 7080.9 ± 1238.7 | Rearing Mean ± SD [2, 10]: 32.8 ± 10.3 | Sniffing Down Mean ± SD [2, 10]: 24.8 ± 5.7 | Sniffing Up Mean ± SD [2, 10]: 30.6 ± 11.1 | Forced Swim Test: Immobility during 5 min: Week 5 Mean ± SD ([2]; stressed, 120 mg/kg p.o.): 128.3 ± 37.4 | Sucrose Intake Mean ± SD Week 3 ([2]; stressed, 120 mg/kg p.o.): 76.1 ± 20.8 | Sucrose Intake Mean ± SD Week 4 ([2]; stressed, 120 mg/kg p.o.): 75.5 ± 20.6 | Sucrose Intake Mean ± SD Week 5 ([2]; stressed, 120 mg/kg p.o.): 87.4 ± 7.9 | Locomotor Mean ± SD [2, 11]: 6168.3 ± 1132.1 | Rearing Mean ± SD [2, 11]: 29.3 ± 7 | Sniffing Down Mean ± SD [2, 11]: 13 ± 3.6 | Sniffing Up Mean ± SD [2, 11]: 27.5 ± 6.1 | Locomotor Mean ± SD [2, 12]: 6444 ± 1010.3 | Rearing Mean ± SD [2, 12]: 30.1 ± 6.4 | Sniffing Down Mean ± SD [2, 12]: 22.5 ± 4.1 | Sniffing Up Mean ± SD [2, 12]: 30.4 ± 7.5 | effect on immobility vs control (Sprague Dawley rats; 30 mg/kg p.o., large variability between individual rats): not significantly different from control | Emax (immobility) in the FST (Sprague Dawley rats; p.o.): 67.0 ± 11.6 s | doses at which effect on immobility was statistically significant vs vehicle (Sprague Dawley rats; p.o.): 12 mg/kg, 60 mg/kg, and 120 mg/kg | TD50 [3]: ~100 mg/kg | rats with significant reduction in global seizure activity (score <3) ([4]; after treatment i.p.): 6 out of 8 | rats with seizure scores significantly reduced from 5 to 1 ([4]; i.p., p=0.0003): 4 out of 8 | effect on the ADD (after-discharge duration) ([4]; i.p., p=0.07): no statistically significant effect
